Test results taken from patent US20260092061A1, “COMPOUNDS FOR TARGETED PROTEIN DEGRADATION” (Amphista Therapeutics Limited, priority 2022, published 2026).
Where two headings read alike, the source gives them in different places.

Assays:
Type in all cases: cell-based
BRD4 = target: T1, BRD4 (Homo sapiens, UniProt O60885); test: BRD4 degradation, HiBiT-BRD4 HEK293 CRISPR CPM cells, NanoGlo Lytic Endpoint assay (Assay Protocol 1); details: Table 3, assay 1; for Dmax: HEK293, 1 μM compound at 5 h of treatment; for DC50: 5 h of treatment
T1 construct: HiBiT-BRD4 HEK293 CRISPR CPM (Promega CS302312); host or cells: HEK293, CRISPR-edited (HiBiT at the BRD4 locus)

BRD9 [1] = target: T2, BRD9 (Homo sapiens, UniProt Q9H8M2); test: BRD9 degradation, HiBiT-BRD9 KI HEK293 (LgBiT) cells, NanoGlo Lytic Endpoint assay (Assay Protocol 1); details: Table 3; assay 1; 5 h of treatment
T2 sequence (Q9H8M2 1-597): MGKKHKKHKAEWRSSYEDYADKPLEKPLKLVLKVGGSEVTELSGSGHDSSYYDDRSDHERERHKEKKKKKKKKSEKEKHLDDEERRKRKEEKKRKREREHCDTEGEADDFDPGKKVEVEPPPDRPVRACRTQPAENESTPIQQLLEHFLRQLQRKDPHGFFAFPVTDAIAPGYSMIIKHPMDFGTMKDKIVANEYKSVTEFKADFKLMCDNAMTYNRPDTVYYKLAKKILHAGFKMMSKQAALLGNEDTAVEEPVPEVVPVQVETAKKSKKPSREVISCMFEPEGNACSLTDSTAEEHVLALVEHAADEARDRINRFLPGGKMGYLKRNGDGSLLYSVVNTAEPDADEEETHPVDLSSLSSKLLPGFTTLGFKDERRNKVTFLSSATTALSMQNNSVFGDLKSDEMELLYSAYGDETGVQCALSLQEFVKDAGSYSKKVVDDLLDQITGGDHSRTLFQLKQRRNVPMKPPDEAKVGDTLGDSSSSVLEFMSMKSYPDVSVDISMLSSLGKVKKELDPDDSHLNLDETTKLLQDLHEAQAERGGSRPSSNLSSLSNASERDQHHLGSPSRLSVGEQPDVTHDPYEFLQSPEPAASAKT

BRD9 [2] = target: T2, BRD9; test: as above; details: for Dmax at 1 µM / Dmax: HEK293
Method in brief: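 HiBiT-tagged BRD9 knock-in HEK293 (LgBiT) cells exposed to compounds for 6 h at 37 °C, 5% CO2. Residual BRD9 measured by HiBiT lytic luminescence. % BRD9 remaining normalised to DMSO-treated cells (high) and no-cell wells (low).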

BRD7 = target: T3, BRD7 (Homo sapiens, UniProt Q9NPI1); test: BRD7 degradation, HiBiT-BRD7 KI HEK293 (LgBiT) cells, NanoGlo Lytic Endpoint assay (Assay Protocol 1); details: HEK293; Table 3; assay 1; 1 μM compound at 5 h of treatment
T3 construct: HiBiT-BRD7 KI HEK293 (LgBiT) Cells (Promega CS3023410); host or cells: HEK293 (LgBiT), HiBiT knock-in at the BRD7 locus
T3 sequence (Q9NPI1 1-651): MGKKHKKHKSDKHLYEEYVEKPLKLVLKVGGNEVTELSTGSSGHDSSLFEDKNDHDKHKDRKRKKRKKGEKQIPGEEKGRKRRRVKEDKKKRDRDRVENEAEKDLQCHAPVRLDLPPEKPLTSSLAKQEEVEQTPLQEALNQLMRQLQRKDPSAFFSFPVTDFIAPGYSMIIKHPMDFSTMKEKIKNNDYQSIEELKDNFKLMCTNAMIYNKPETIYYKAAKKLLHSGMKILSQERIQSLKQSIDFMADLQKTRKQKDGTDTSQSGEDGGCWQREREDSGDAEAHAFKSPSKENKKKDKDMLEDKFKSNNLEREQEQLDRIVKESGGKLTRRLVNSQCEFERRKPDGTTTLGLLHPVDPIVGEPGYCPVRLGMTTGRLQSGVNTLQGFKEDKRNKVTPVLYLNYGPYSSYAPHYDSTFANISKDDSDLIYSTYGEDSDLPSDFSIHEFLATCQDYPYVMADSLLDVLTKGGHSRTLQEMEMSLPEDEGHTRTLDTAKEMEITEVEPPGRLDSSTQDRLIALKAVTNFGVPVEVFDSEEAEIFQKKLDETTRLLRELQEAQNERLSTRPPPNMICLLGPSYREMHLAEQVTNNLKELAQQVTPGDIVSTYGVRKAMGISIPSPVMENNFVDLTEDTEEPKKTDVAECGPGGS
Experimental: HiBiT-BRD9 KI HEK293 (LgBiT) Cells (Promega CS3023412) were seeded at 8000 cells per well (38 μL) in sterile white bottom 384 well plates (Invitrogen 164610 or Greiner 781080) and incubated overnight at 37° C. with 5% CO2. The next day, compounds were prepared at 1000× final concentration in DMSO and diluted 1:100 in media (DMEM PAN Biotech P04-03550+10% FBS ATCC 302025). […] The lytic buffer was equilibrated to room temperature for 10-15 min before lytic reagent was prepared by adding substrate (1:50) and LgBit protein (1:100) in lytic buffer. 40 μL lytic reagent mix was added to each well of the cel plate and plates were centrifuged briefly at ˜50g. Plates were incubated with shaking (350 RPM) for 12-24 min before reading using the LUM plus module of a BMG Pherastar FSX. Data was analysed using Dotmatics software and % BRD9 remaining was calculated by normalisation to average data from high and low control wells (DMSO treated cels and no cells respectively).
BRD7 degradation was determined in line with the procedure as outlined above for BRD9, with the exception that HiBiT-BRD7 KI HEK293 (LgBiT) Cells (Promega CS3023410) were seeded at 8000 cells per well (CPW) (36 uL) in sterile white bottom 384 well plates (Invitrogen 164610 or Greiner 781080) and incubated overnight at 37° C. with 5% CO2.

BRD9 [3] = target: T2, BRD9; test: Degradation of BRD9 (IF), immunofluorescence in MV4-11 cells, 24 hours (Assay Protocol 2); set-up: A suspension of MV4-11 cells (ATCC CRL-9591) was prepared; host or cells: MV4-11; details: BRD9 degradation
Method in brief: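 % BRD9 remaining, scaled between DMSO (high) and 100 nM CFT-8634 (low) control wells, derives from mean Alexa 647 contrast in central nuclei by high-content imaging. MV4-11 cells had 24 h compound exposure at 37° C. before PFA fixation, Triton permeabilisation and anti-BRD9 E4Q3F immunostaining.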

[4] = Table 2, BRD9 degradation, Assay Protocol 1, 1 μM compound at 6 h of treatment, read-out: Assay 1 Dmax
[5] = Table 3, assay 1, 1 μM compound at 5 h of treatment, read-out: BRD9 Dmax (%)
[6] = Table 2, BRD9 degradation, Assay Protocol 1, 6 h of treatment, read-out: Assay 1 DC50
[7] = MV4-11, Assay protocol 2, read-out: Dmax
[8] = Assay protocol 1, BRD9 degradation, read-out: Dmax
[9] = Assay protocol 2, read-out: DC50
[10] = Assay protocol 1, BRD9 degradation, read-out: DC50
[11] = MV4-11, Table 4, determined according to Assay Protocol 2, read-out: Dmax^2
[12] = Table 4, determined according to Assay Protocol 2, read-out: DC50^2
[13] = Table 4, BRD9 degradation, determined according to Assay Protocol 1, read-out: Dmax^1
[14] = Table 4, BRD9 degradation, determined according to Assay Protocol 1, read-out: DC50^1

SMILES	Dmax (BRD9 [3]; [11])	DC50 (BRD9 [3]; [12])	Dmax (BRD9 [2]; [13])	DC50 (BRD9 [2]; [14])	further results
COc1cc(-c2cn(C)c(=O)c(C)c2C)cc(OC)c1CN1CCN(Cc2cccc3c2CCN(C(=O)/C(C#N)=C/c2ncc(C)s2)C3C)CC1 (mixture of isomers) [Compound A29]	–	–	–	–	Dmax (BRD4): < 25%; DC50 (BRD9 [1]): 1.25 to 10 nM; Dmax at 1 µM (BRD9 [2]; [4]): 40 to 70%; Dmax at 1 µM (BRD9 [2]; [5]): 40 to 70%; DC50 (BRD9 [2]; [6]): 1.25 to 10 nM; Dmax at 1 µM (BRD7): 25 to 40%
COc1cc(-c2cc(C)c(=O)n(C)c2)cc(OC)c1CN1CCN(Cc2cccc3c2CCN(C(=O)/C(C#N)=C/c2cccc(Br)n2)C3C)CC1 (mixture of isomers) [Compound A60]	–	–	–	–	Dmax (BRD4): 40 to 70%; DC50 (BRD4): 25 to 1000 nM; DC50 (BRD9 [1]): < 1.25 nM; Dmax at 1 µM (BRD9 [2]; [4]): 40 to 70%; Dmax at 1 µM (BRD9 [2]; [5]): 40 to 70%; DC50 (BRD9 [2]; [6]): < 1.25 nM; Dmax at 1 µM (BRD7): < 25%
COc1cc(-c2cc(C)c(=O)n(C)c2)cc(OC)c1CN1CCN(Cc2cccc3c2CCN(C(=O)/C(C#N)=C/C2(F)CC2)C3C)CC1 (mixture of isomers) [Compound A61, (E/Z)-2-(5-((4-(4-(1,5-dimethyl-6-oxo-1,6-dihydropyridin-3-yl)-2,6-dimethoxybenzyl)piperazin-1-yl)methyl)-1-methyl-1,2,3,4-tetrahydroisoquinoline-2-carbonyl)-3-(1-fluorocyclopropyl) acrylonitrile]	–	–	–	–	Dmax (BRD4): 40 to 70%; DC50 (BRD4): 25 to 1000 nM; DC50 (BRD9 [1]): < 1.25 nM; Dmax at 1 µM (BRD9 [2]; [4]): > 75%; Dmax at 1 µM (BRD9 [2]; [5]): > 75%; DC50 (BRD9 [2]; [6]): < 1.25 nM; Dmax at 1 µM (BRD7): < 25%
COc1cc(-c2cn(C)c(=O)c(C)c2C)cc(OC)c1CN1CCN(C(=O)[C@@H]2CN(C(=O)/C(C#N)=C/c3nccs3)C[C@H]2c2ccccc2)CC1 [Compound B28]	–	–	–	–	Dmax (BRD9 [3]; [7]): 40 to 70%; Dmax (BRD9 [2]; [8]): 25 to 40%
COc1cc(-c2cn(C)c(=O)c(C)c2C)cc(OC)c1CN1CCN(Cc2cccc(C3CCCN3C(=O)/C(C#N)=C/c3nc(C(F)(F)F)cs3)c2)CC1 (stereo not drawn) [Compound B56]	–	–	–	–	DC50 (BRD9 [3]; [9]): < 1.25 nM; Dmax (BRD9 [3]; [7]): > 75%; DC50 (BRD9 [2]; [10]): < 1.25 nM; Dmax (BRD9 [2]; [8]): > 75%
CCCC(c1ccc(C(=O)N(C)CCC(=O)N2CCN(Cc3c(OC)cc(-c4cn(C)c(=O)c(C)c4C)cc3OC)CC2)cc1)N(C)C(=O)/C(C#N)=C/c1nccs1 (stereo not drawn) [Compound B180]	–	–	–	–	Dmax (BRD9 [3]; [7]): 40 to 70%; Dmax (BRD9 [2]; [8]): 40 to 70%
COc1cc(-c2cn(C)c(=O)c(C)c2C)cc(OC)c1CN1CCN(C(=O)C2CCCN(C(=O)/C(C#N)=C/c3nccs3)C2)CC1 (stereo not drawn) [Compound B205]	50 to 70%	25 to 200 nM	30 to 50%	–	–
COc1cc(-c2cn(C)c(=O)c(C)c2C)cc(OC)c1CN1CCN(C(=O)C2CCCN(C(=O)/C(C#N)=C/C(C)(C)C)C2)CC1 (stereo not drawn) [Compound B206]	50 to 70%	25 to 200 nM	> 70%	25 to 200 nM	–
COc1cc(-c2cn(C)c(=O)c(C)c2C)cc(OC)c1CN1CCN(C(=O)C2CC(C(C)C)CN(C(=O)/C(C#N)=C/C(C)(C)C)C2)CC1 (stereo not drawn) [Compound B207]	> 70%	25 to 200 nM	> 70%	25 to 200 nM	–
COc1ccc(C2CC(C(=O)N3CCN(Cc4c(OC)cc(-c5cn(C)c(=O)c(C)c5C)cc4OC)CC3)CN(C(=O)/C(C#N)=C/C(C)(C)C)C2)cc1 (stereo not drawn) [Compound B208]	> 70%	< 25 nM	> 70%	< 25 nM	–
COc1cc(-c2cn(C)c(=O)c(C)c2C)cc(OC)c1CN1CCN(C(=O)[C@@H]2CN(C(=O)/C(C#N)=C/c3nccs3)C[C@H]2C2CCCCC2)CC1 [Compound B209]	> 70%	25 to 200 nM	30 to 50%	> 200 nM	–
COc1cc(-c2cn(C)c(=O)c(C)c2C)cc(OC)c1CN1CCN(C(=O)[C@@H]2CN(C(=O)/C(C#N)=C/C(C)(C)C)C[C@H]2C2CCCCC2)CC1 [Compound B210]	50 to 70%	25 to 200 nM	50 to 70%	25 to 200 nM	–
COc1cc(-c2cn(C)c(=O)c(C)c2C)cc(OC)c1CN1CCN(C(=O)[C@@H]2CN(C(=O)/C(C#N)=C/c3ccc(F)cc3)C[C@H]2C2CCCCC2)CC1 [Compound B211]	50 to 70%	> 200 nM	> 70%	> 200 nM	–
COc1cc(-c2cn(C)c(=O)c(C)c2C)cc(OC)c1CN1CCN(C(=O)[C@@H]2CN(C(=O)/C(C#N)=C/C(C)(C)C)C[C@H]2C(C)C)CC1 [Compound B212]	50 to 70%	25 to 200 nM	50 to 70%	25 to 200 nM	–
COc1cc(-c2cn(C)c(=O)c(C)c2C)cc(OC)c1CN1CCN(C(=O)[C@@H]2CN(C(=O)/C(C#N)=C/c3nccs3)C[C@H]2c2cccc(C)c2)CC1 [Compound B213]	50 to 70%	> 200 nM	30 to 50%	–	–
COc1cc(-c2cn(C)c(=O)c(C)c2C)cc(OC)c1CN1CCN(Cc2cccc3c2CCN(C(=O)/C(C#N)=C/C(C)(C)C)C3(C)C)C2(CC2)C1 [Compound C9, (E/Z)-2-(5-((7-(2,6-dimethoxy-4-(1,4,5-trimethyl-6-oxo-1,6-dihydropyridin-3-yl)benzyl)-4,7-diazaspiro[2.5]octan-4-yl)methyl)-1,1-dimethyl-1,2,3,4-tetrahydroisoquinoline-2-carbonyl)-4,4-dimethylpent-2-enenitrile]	–	–	–	–	DC50 (BRD9 [3]; [9]): 25 to 1000 nM; Dmax (BRD9 [3]; [7]): 40 to 70%; DC50 (BRD9 [2]; [10]): 25 to 1000 nM; Dmax (BRD9 [2]; [8]): 70 to 75%
